Patent US6821743B2, “Human endothelin receptor” (Shionogi Sieyaku Kabushiki Kaisha, priority 1991, dated 2004)
Entries after “also recorded” stand apart in the source; their conditions may differ. Bridge positions count the residues as written; N and C are the ends. Peptide text beside a SMILES is read from it.

Tests used:
[1] = in vivo, previously shown; cited from earlier work
[2] = system: rat A-10 vascular smooth muscle cell; details: J. Biol. Chem. 265, 14044-14049 (1990); cited from earlier work
ETB-receptor = molecular target: T1, ETB-receptor (Homo sapiens, UniProt P24530); assay: Competitive 125I-ET-1 binding assay on COS-7 cells transfected with CDM8-pHETBR
T1 construct: expressed in transfected cells; host or cells: COS-7 cells
T1 sequence (P24530 27-442): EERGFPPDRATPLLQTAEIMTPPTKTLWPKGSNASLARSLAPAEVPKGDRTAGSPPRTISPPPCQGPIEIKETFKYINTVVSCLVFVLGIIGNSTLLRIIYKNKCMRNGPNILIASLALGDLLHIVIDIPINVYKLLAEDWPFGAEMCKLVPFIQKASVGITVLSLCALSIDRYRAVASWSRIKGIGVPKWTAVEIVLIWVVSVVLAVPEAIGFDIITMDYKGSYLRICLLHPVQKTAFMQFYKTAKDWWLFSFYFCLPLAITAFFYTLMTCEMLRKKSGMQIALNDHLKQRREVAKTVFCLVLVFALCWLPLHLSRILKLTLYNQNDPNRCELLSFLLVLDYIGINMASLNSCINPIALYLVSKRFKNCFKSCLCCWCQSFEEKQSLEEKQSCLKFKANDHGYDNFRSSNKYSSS

ETA-receptor [3] = molecular target: T2, ETA-receptor (Homo sapiens, UniProt P25101); assay: Inward current in Xenopus laevis oocytes injected with ETA-receptor mRNA; format: cell-based; details: 1×10^−7 M peptide, holding potential −60 mV, 20° C.
T2 sequence (P25101 21-427): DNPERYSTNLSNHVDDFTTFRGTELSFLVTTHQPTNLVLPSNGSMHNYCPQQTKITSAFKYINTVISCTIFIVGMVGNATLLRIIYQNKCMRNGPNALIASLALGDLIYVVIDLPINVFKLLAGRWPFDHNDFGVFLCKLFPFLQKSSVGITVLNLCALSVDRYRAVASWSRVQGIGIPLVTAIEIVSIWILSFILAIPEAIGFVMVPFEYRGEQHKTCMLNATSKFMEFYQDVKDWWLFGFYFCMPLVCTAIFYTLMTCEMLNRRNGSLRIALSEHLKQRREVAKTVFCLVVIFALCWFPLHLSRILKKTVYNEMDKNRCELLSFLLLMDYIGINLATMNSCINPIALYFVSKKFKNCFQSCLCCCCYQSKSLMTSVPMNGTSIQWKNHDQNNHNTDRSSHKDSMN

ETA-receptor [4] = molecular target: T2, ETA-receptor; assay: Competitive 125I-ET-1 binding assay on COS-7 cells transfected with CDM8-phETIR; design: expressed in transfected cells; host or cells: COS-7 cells; details: displacement of 50 pM 125I-ET-1, transfected COS-7 cells, 37° C. for 60 min

SMILES | vasoconstrictor strength [1] | inhibition of binding of 125I-ET-1 [2] | affinity of the receptor (FIG. 4) (ETB-receptor; transformant containing CDM8-pHETBR) | inward current recorded from the oocyte (ETA-receptor [3]) | IC50 (ETB-receptor; displacement of 125I-ET-1, COS cell transformed with CDM8-pHETBR) [nM] | IC50 (ETA-receptor [4]) [nM]
CC[C@H](C)[C@H](NC(=O)[C@H](CC(=O)O)NC(=O)[C@H](CC(C)C)NC(=O)[C@H](Cc1c[nH]cn1)NC(=O)[C@@H]1CSSC[C@H](N)C(=O)N[C@@H](CO)C(=O)N[C@H]2CSSC[C@H](NC(=O)[C@H](CCC(=O)O)NC(=O)[C@H](CCCCN)NC(=O)[C@H](CC(=O)O)NC(=O)[C@H](CCSC)NC(=O)[C@H](CC(C)C)NC(=O)[C@H](CO)NC(=O)[C@H](CO)NC2=O)C(=O)N[C@@H](C(C)C)C(=O)N[C@@H](Cc2ccc(O)cc2)C(=O)N[C@@H](Cc2ccccc2)C(=O)N1)C(=O)N[C@H](C(=O)N[C@@H](Cc1c[nH]c2ccccc12)C(=O)O)[C@@H](C)CC [ET-1, Endothelin 1] | much more strong vasoconstrictors than ET-3 | inhibit the binding of ^125I-ET-1 |  |  |  | 
CC[C@H](C)[C@H](NC(=O)[C@H](CC(=O)O)NC(=O)[C@H](CC(C)C)NC(=O)[C@H](Cc1c[nH]cn1)NC(=O)[C@@H]1CSSC[C@H](N)C(=O)N[C@@H](CO)C(=O)N[C@H]2CSSC[C@H](NC(=O)[C@H](CCC(=O)O)NC(=O)[C@H](CCCCN)NC(=O)[C@H](CC(=O)O)NC(=O)[C@H](CC(C)C)NC(=O)[C@H](Cc3c[nH]c4ccccc34)NC(=O)[C@H](CO)NC(=O)[C@H](CO)NC2=O)C(=O)N[C@@H](C(C)C)C(=O)N[C@@H](Cc2ccc(O)cc2)C(=O)N[C@@H](Cc2ccccc2)C(=O)N1)C(=O)N[C@H](C(=O)N[C@@H](Cc1c[nH]c2ccccc12)C(=O)O)[C@@H](C)CC [ET-2, Endothelin 2] (H-CSCSSWLDKECVYFCHLDIIW-OH; disulfide 1-15, 3-11; N-terminus and C-terminus assumed) | much more strong vasoconstrictors than ET-3 | inhibit the binding of ^125I-ET-1 | almost the same affinity | the same value of current; also recorded: A similar inward current |  | 
CC[C@H](C)[C@H](NC(=O)[C@H](CC(=O)O)NC(=O)[C@H](CC(C)C)NC(=O)[C@H](Cc1cnc[nH]1)NC(=O)[C@@H]1CSSC[C@H](N)C(=O)N[C@@H](CO)C(=O)N[C@H]2CSSC[C@H](NC(=O)[C@H](CCC(=O)O)NC(=O)[C@H](CCCCN)NC(=O)[C@H](CC(=O)O)NC(=O)[C@H](CC(C)C)NC(=O)[C@H](Cc3c[nH]c4ccccc34)NC(=O)[C@H](CO)NC(=O)[C@H](CO)NC2=O)C(=O)N[C@@H](C(C)C)C(=O)N[C@@H](Cc2ccc(O)cc2)C(=O)N[C@@H](Cc2ccccc2)C(=O)N1)C(=O)N[C@H](C(=O)N[C@@H](Cc1c[nH]c2ccccc12)C(=O)O)[C@@H](C)CC [ET-2, Endothelin 2] (H-CSCSSWLDKECVYFCHLDIIW-OH; disulfide 1-15, 3-11) |  |  |  |  | ~1 | 6.1
